Experimental findings from publication PMC2995015 (Biochemistry, 2010) are described below.

Common to all, as to format: cell-based
The target in one assay is T1, PMAT wild type (Homo sapiens, UniProt Q7RTT9).
T1 sequence (Q7RTT9 1-530): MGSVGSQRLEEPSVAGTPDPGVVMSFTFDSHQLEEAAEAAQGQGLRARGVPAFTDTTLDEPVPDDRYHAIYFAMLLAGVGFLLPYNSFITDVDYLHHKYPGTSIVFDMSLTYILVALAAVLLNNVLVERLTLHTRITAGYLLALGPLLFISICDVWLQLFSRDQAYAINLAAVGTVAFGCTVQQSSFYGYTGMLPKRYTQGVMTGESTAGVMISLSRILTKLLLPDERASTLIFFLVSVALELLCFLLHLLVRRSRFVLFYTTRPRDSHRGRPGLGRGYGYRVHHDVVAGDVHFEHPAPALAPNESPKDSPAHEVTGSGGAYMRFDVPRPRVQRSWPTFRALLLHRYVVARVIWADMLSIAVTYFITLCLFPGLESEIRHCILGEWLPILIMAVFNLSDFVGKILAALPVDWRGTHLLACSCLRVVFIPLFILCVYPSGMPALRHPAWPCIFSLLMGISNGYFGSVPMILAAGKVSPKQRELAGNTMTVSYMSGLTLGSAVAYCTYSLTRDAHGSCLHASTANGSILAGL
Kind of assay: Concentration-dependent transport kinetics in stably transfected MDCK cells. The conditions noted are these: 1 min, 37°C.

For assay [1], the target named is T2, PMAT mutant Y85W (Homo sapiens, UniProt Q7RTT9, Y85W).
T2 sequence (Q7RTT9 1-530 Y85W): T1 sequence (Q7RTT9 1-530) with Y85W
The assay is described as above. The note with it: for Km / Vmax: Y85W, MDCK cells, 1 min, 37°C.

The target of assay [2] is T3, PMAT mutant Y112W (Homo sapiens, UniProt Q7RTT9, Y112W).
T3 sequence (Q7RTT9 1-530 Y112W): T1 sequence (Q7RTT9 1-530) with Y112W
Described as above. The conditions noted are these: for Km / Vmax: Y112W, MDCK cells, 1 min, 37°C.

Assay [3] deals with T3, PMAT mutant Y112W. As to the kind of experiment: Single-concentration 3H-substrate uptake in stably transfected MDCK cells. The conditions noted are these: MPP+ 1 μM, 5-HT 10 μM, dopamine 10 μM, 4 min, 37°C.
Assay [4] addresses T2, PMAT mutant Y85W. Kind of assay: Uptake of uridine in the presence of NBMPR in stably transfected MDCK cells. The conditions noted are these: 0.5 μM NBMPR, vs vector-transfected cells.
The target in assay [5] is T2, PMAT mutant Y85W. As to the kind of experiment: Uridine inhibition of organic cation transport in stably transfected MDCK cells. The conditions noted are these: uridine 1 mM; data not shown.
For a further assay, the target named is T4, PMAT mutant Y112A (Homo sapiens, UniProt Q7RTT9, Y112A).
T4 sequence (Q7RTT9 1-530 Y112A): T1 sequence (Q7RTT9 1-530) with Y112A
As to the kind of experiment: Uptake of uridine in the presence of NBMPR in stably transfected MDCK cells. The conditions noted are these: 0.5 μM NBMPR, vs vector-transfected cells.

Another assay addresses T5, WT PMAT (Homo sapiens, UniProt Q7RTT9).
T5 sequence (Q7RTT9 1-530): T1 sequence (Q7RTT9 1-530)
The description is as above. The note with it: 0.5 μM NBMPR, vs vector-transfected cells.

The target in a further assay is T6, PMAT mutant Y112S (Homo sapiens, UniProt Q7RTT9, Y112S).
T6 sequence (Q7RTT9 1-530 Y112S): T1 sequence (Q7RTT9 1-530) with Y112S
The assay is described as above. The conditions noted are these: 0.5 μM NBMPR, vs vector-transfected cells.

Assay [6] concerns the target T2, PMAT mutant Y85W. As to the kind of experiment: Single-concentration 3H-substrate uptake in stably transfected MDCK cells. The conditions noted are these: MPP+ 1 μM, 5-HT 10 μM, dopamine 10 μM, 4 min, 37°C.

The structures appear in SMILES notation. Positions count from the first letter of the chain named.

Turning to `NCCc1ccc(O)c(O)c1` [Dopamine, dopamine], the Km was 244 ± 16.2 µM at PMAT wild type, 243 ± 30.4 µM on PMAT mutant Y85W [1] and 88 ± 6.8 µM on PMAT mutant Y112W [2]. In addition, the Vmax at PMAT wild type is given as 4.12 ± 0.35 nmol/mg protein/min; at PMAT mutant Y85W [1] it was 3.87 ± 0.14 nmol/mg protein/min; on PMAT mutant Y112W [2], 1.03 ± 0.09 nmol/mg protein/min. Besides, at PMAT mutant Y112W [2] (Y112W vs WT PMAT), the “transport efficiencies, % of the WT PMAT” value is recorded as 60–70%. Also, at PMAT mutant Y112W [3], the “activity retained compared to cells expressing WT PMAT” value was 50–60%.
Consider `O=c1ccn([C@@H]2O[C@H](CO)[C@@H](O)[C@H]2O)c(=O)[nH]1` [uridine], for which the “transport activity for uridine” value at PMAT mutant Y85W [4], on PMAT mutant Y112A, at WT PMAT and at PMAT mutant Y112S was “no statistically significant transport activity” throughout. In addition, the “inhibitory effect on Y85W-mediated organic cations transport” value on PMAT mutant Y85W [5] is on record as “no significant inhibitory effect”.
Turning to `NCCc1c[nH]c2ccc(O)cc12` [Serotonin, serotonin], the figures for the Km at PMAT wild type, at PMAT mutant Y85W [1] and on PMAT mutant Y112W [2] were 168 ± 18.9 µM, 308 ± 50.8 µM and 104 ± 13.2 µM, respectively. Moreover, the Vmax on PMAT mutant Y112W [2] amounted to 1.04 ± 0.13 nmol/mg protein/min.
In the case of `C[n+]1ccc(-c2ccccc2)cc1` [MPP^+, 1-methyl-4-phenylpyridinium], at PMAT mutant Y85W [6], the “transport activity compared to WT PMAT” value is “significantly higher transport activity”. Also, at PMAT wild type, the Km worked out at 42.2 ± 5 µM and the Vmax was 0.60 ± 0.04 nmol/mg protein/min. Also, at PMAT mutant Y85W [1] (Y85W vs WT PMAT), the “increase in maximal velocity (Vmax)” value is recorded as 1.6 fold and the “increase in transport efficiency (Vmax/Km)” value is on record as “about 2 fold”. For the same molecule, on PMAT mutant Y85W [1], the Km worked out at 31.1 ± 6.9 µM and the Vmax came to 0.94 ± 0.10 nmol/mg protein/min. At PMAT mutant Y112W [2] (Y112W vs WT PMAT), the “reduction in Vmax” value was 2.6 fold. On PMAT mutant Y112W [2], the Michaelis-Menten constant (Km) was determined as 147 ± 36.3 µM and the Vmax was determined as 0.23 ± 0.02 nmol/mg protein/min. Also, at PMAT mutant Y112W [3], the “activity retained compared to cells expressing WT PMAT” value is “less than 20%”.
